{"source": "paper PMC10733463", "about": "“Berberine-microbiota interplay: orchestrating gut health through modulation of the gut microbiota and metabolic transformation into bioactive metabolites” (Frontiers in Pharmacology, 2023)", "tested_on": "caecal microbiota", "experiment": "16S rRNA gene sequencing, microbiota composition in the caecum", "format": "in vivo, Ross 308 broiler chickens", "key": {"[1]": {"conditions": "0.1 g berberine/kg feed vs normal diet, 21 days, LinDA-normalized abundance"}, "[2]": {"conditions": "0.1 g berberine/kg feed, 21 days"}, "[3]": {"conditions": "0.5 g berberine/kg feed vs normal diet, 21 days, LinDA-normalized abundance"}, "[4]": {"conditions": "0.5 g berberine/kg feed, 21 days"}, "[5]": {"conditions": "1 g berberine/kg feed vs normal diet, 21 days, LinDA-normalized abundance"}}, "data": [{"smiles": "COc1ccc2cc3[n+](cc2c1OC)CCc1cc2c(cc1-3)OCO2", "note": "[Berberine, Berberine chloride]", "values": [{"measurement": "L2 FC ASF356, 0.1 vs 0", "setting": "[1]", "result": 3.88}, {"measurement": "L2 FC CHKCI001, 0.1 vs 0", "setting": "[1]", "result": 1.33}, {"measurement": "L2 FC Family_ Lachnospiraceae, 0.1 vs 0", "setting": "[1]", "result": -0.10}, {"measurement": "L2 FC Fusicatenibacter, 0.1 vs 0", "setting": "[1]", "result": 1.41}, {"measurement": "L2 FC uncultured genus of Peptostreptococcaceae, 0.1 vs 0", "setting": "[1]", "result": 0.26}, {"measurement": "Mean relative abundance (%) ASF356", "setting": "[2]", "result": 0.40, "unit": "%"}, {"measurement": "Mean relative abundance (%) CHKCI001", "setting": "[2]", "result": 0.02, "unit": "%"}, {"measurement": "Mean relative abundance (%) Family_ Lachnospiraceae", "setting": "[2]", "result": 2.08, "unit": "%"}, {"measurement": "Mean relative abundance (%) Fusicatenibacter", "setting": "[2]", "result": 0.06, "unit": "%"}, {"measurement": "Mean relative abundance (%) uncultured genus of Peptostreptococcaceae", "setting": "[2]", "result": 0.63, "unit": "%"}, {"measurement": "Mean relative abundance of Peptostreptococcaceae", "setting": "[2]", "result": 0.66, "unit": "%"}, {"measurement": "L2FC of LinDA-normalized abundance of Peptostreptococcaceae", "setting": "0.1 vs 0 g berberine/kg feed", "result": 0.02}, {"measurement": "L2 FC ASF356, 0.5 vs 0", "setting": "[3]", "result": 4.47}, {"measurement": "L2 FC CHKCI001, 0.5 vs 0", "setting": "[3]", "result": 2.34}, {"measurement": "L2 FC Family_ Lachnospiraceae, 0.5 vs 0", "setting": "[3]", "result": 1.25}, {"measurement": "L2 FC Fusicatenibacter, 0.5 vs 0", "setting": "[3]", "result": 3.47}, {"measurement": "L2 FC uncultured genus of Peptostreptococcaceae, 0.5 vs 0", "setting": "[3]", "result": -0.52}, {"measurement": "Mean relative abundance (%) ASF356", "setting": "[4]", "result": 0.38, "unit": "%"}, {"measurement": "Mean relative abundance (%) CHKCI001", "setting": "[4]", "result": 0.03, "unit": "%"}, {"measurement": "Mean relative abundance (%) Family_ Lachnospiraceae", "setting": "[4]", "result": 5.61, "unit": "%"}, {"measurement": "Mean relative abundance (%) Fusicatenibacter", "setting": "[4]", "result": 0.32, "unit": "%"}, {"measurement": "Mean relative abundance (%) uncultured genus of Peptostreptococcaceae", "setting": "[4]", "result": 0.54, "unit": "%"}, {"measurement": "Mean relative abundance of Peptostreptococcaceae", "setting": "[4]", "result": 0.56, "unit": "%"}, {"measurement": "L2FC of LinDA-normalized abundance of Peptostreptococcaceae", "setting": "0.5 vs 0 g berberine/kg feed", "result": -0.55}, {"measurement": "L2 FC ASF356, 1 vs 0", "setting": "[5]", "result": 3.78}, {"measurement": "L2 FC CHKCI001, 1 vs 0", "setting": "[5]", "result": 1.13}, {"measurement": "L2 FC Family_ Lachnospiraceae, 1 vs 0", "setting": "[5]", "result": 0.72}, {"measurement": "L2 FC Fusicatenibacter, 1 vs 0", "setting": "[5]", "result": 2.41}, {"measurement": "L2 FC uncultured genus of Peptostreptococcaceae, 1 vs 0", "setting": "[5]", "result": -8.12}, {"measurement": "Mean relative abundance (%) ASF356", "setting": "1 g berberine/kg feed, 21 days", "result": 0.32, "unit": "%"}, {"measurement": "Mean relative abundance (%) CHKCI001", "setting": "1 g berberine/kg feed, 21 days", "result": 0.02, "unit": "%"}, {"measurement": "Mean relative abundance (%) Family_ Lachnospiraceae", "setting": "1 g berberine/kg feed, 21 days", "result": 5.61, "unit": "%"}, {"measurement": "Mean relative abundance (%) Fusicatenibacter", "setting": "1 g berberine/kg feed, 21 days", "result": 0.12, "unit": "%"}, {"measurement": "Mean relative abundance (%) uncultured genus of Peptostreptococcaceae", "setting": "1 g berberine/kg feed, 21 days", "result": 0.00, "unit": "%"}, {"measurement": "Mean relative abundance of Peptostreptococcaceae", "setting": "1 g berberine/kg feed, 21 days", "result": 0.00, "unit": "%"}, {"measurement": "L2FC of LinDA-normalized abundance of Peptostreptococcaceae", "setting": "1 vs 0 g berberine/kg feed", "result": -7.85}, {"measurement": "Observed number of OTUs", "setting": "lowest concentration (0.1 g/kg feed), p = 0.041", "result": "significantly increased"}, {"measurement": "Bacterial richness (Observed number of OTUs)", "setting": "middle concentration (0.5 g/kg feed), p = 0.087", "result": "tended to increase"}]}]}
